{"source": "patent US12371454B2", "about": "“Cyclic peptide compound having Kras inhibitory action” (priority 2019, dated 2025)", "note": "Starred links: 1 amine or outer side, 2 acyl side, 3 side chain; linkers in the order of their positions; H or OH if unused. Positions of bridges follow the written chain, without caps; N, C: chain ends. Non-standard residues stand in square brackets, D forms with d. Residues, ends and D or L forms follow the SMILES beside them. *: point of attachment. hPhe(3-Cl-4-CF3) = N[C@@H](CCc1ccc(C(F)(F)F)c(Cl)c1)C(=O)O; X48 = O=C([C@H](CCc1ccc(S(F)(F)(F)(F)F)cc1)N[*:1])[*:2]; hPhe(4-CF3) = N[C@@H](CCc1ccc(C(F)(F)F)cc1)C(=O)O; 3Oxa8azabicyclo(3.2.1)octane = C1CC2COCC1N2*; NMePhe(3-Cl) = CN[C@@H](Cc1cccc(Cl)c1)C(=O)O; NMePhe(4-Cl) = CN[C@@H](Cc1ccc(Cl)cc1)C(=O)O; NMePhe(4-Me) = CN[C@@H](Cc1ccc(C)cc1)C(=O)O; NMePhe(2-Cl) = CN[C@@H](Cc1ccccc1Cl)C(=O)O; NMeGly(cPent) = CN[C@H](C(=O)O)C1CCCC1; Phe(3-I) = N[C@@H](Cc1cccc(I)c1)C(=O)O; NMeCha = CN[C@@H](CC1CCCCC1)C(=O)O; NMeChg = CN[C@H](C(=O)O)C1CCCCC1; NMeF = CN[C@@H](Cc1ccccc1)C(=O)O; NMeT = CN[C@H](C(=O)O)[C@@H](C)O; d(β3hL) = CC(C)C[C@@H](N)CC(=O)O; N(CH2CH2)2CF2 = FC1(F)CCN(*)CC1; NMeD = CN[C@@H](CC(=O)O)C(=O)O; NMeL = CN[C@@H](CC(C)C)C(=O)O; NMeNva = CCC[C@H](NC)C(=O)O; NMeV = CN[C@H](C(=O)O)C(C)C; d(β3hA) = C[C@@H](N)CC(=O)O; NMeA = CN[C@@H](C)C(=O)O; NMeAib = CNC(C)(C)C(=O)O; Nle = CCCC[C@H](N)C(=O)O; Piperidide = C1CCN(*)CC1; Ac5c = NC1(C(=O)O)CCCC1; Aze = O=C(O)[C@@H]1CCN1; NBuGly = CCCCNCC(=O)O; Aib = CC(C)(N)C(=O)O; βAla = NCCC(=O)O; Sar = CNCC(=O)O", "data": [{"molecular_target": "T1, Kras and SOS1 (biotin-tagged human Kras loaded with GDP, His-tagged human SOS1) (Homo sapiens, UniProt P01116, G12D)", "T1 construct": "made in house; host or cells: E. coli (stated for Kras only)", "T1 sequence (P01116 1-188 isoform P01116-2 G12D)": "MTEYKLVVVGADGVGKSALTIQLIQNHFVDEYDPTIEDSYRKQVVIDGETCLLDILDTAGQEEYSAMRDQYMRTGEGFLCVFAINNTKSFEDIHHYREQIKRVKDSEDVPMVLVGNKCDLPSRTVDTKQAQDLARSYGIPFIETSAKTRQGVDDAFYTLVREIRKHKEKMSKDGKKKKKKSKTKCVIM", "assay": "Protein-protein interaction inhibition between Kras and SOS1 (KrasGl2D-SOS PPI) using AlphaScreen", "type": "binding", "settings": "AlphaScreen; biotin-tagged human Kras loaded with GDP, His-tagged human SOS1; read-out: KRAS G12D-SOS PPI IC50", "summary_of_the_method": "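Binding between SOS1 and Kras is detected as bead-proximity luminescence: illuminate Ni-conjugated donors (680 nm), collect 520-620 nm emission from streptavidin-conjugated acceptors; Kras carries biotin and GDP loaded after purification, SOS1 carries a His tag.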", "units": {"IC50": "µM"}, "values": [{"smiles": "CC[C@H](C)[C@@H]1NC(=O)CCNC(=O)[C@H](Cc2ccccc2)N(C)C(=O)[C@H](C2CCCCC2)N(C)C(=O)C2(CCCC2)NC(=O)[C@@H]2CCCN2C(=O)[C@H](CCc2ccc(C(F)(F)F)c(Cl)c2)NC(=O)CN(C)C(=O)[C@H](CC2CCCCC2)N(C)C(=O)CN(C)C(=O)CN(C)C1=O", "note": "[Compound 1007] (cyclo([Ac5c][NMeChg][NMeF][βAla]I[Sar][Sar][NMeCha][Sar][hPhe(3-Cl-4-CF3)]P))", "IC50": 0.013}, {"smiles": "CC[C@H](C)[C@@H]1NC(=O)[C@H](CC(C)C)N(C)C(=O)C[C@@H](C(=O)N(C)C)N(C)C(=O)[C@H](C2CCCC2)N(C)C(=O)C2(CCCC2)NC(=O)[C@H](Cc2ccccc2Cl)N(C)C(=O)[C@H](CCc2ccc(C(F)(F)F)c(Cl)c2)NC(=O)CN(C)C(=O)[C@H](CC2CCCCC2)N(C)C(=O)[C@@H]2CCN2C(=O)[C@H](C)N(C)C1=O", "note": "[Compound 1009] ([NMeL]I[NMeA][Aze][NMeCha][Sar][hPhe(3-Cl-4-CF3)][NMePhe(2-Cl)][Ac5c][NMeGly(cPent)][NMeD]-NMe2; lactam N-11)", "IC50": 0.043}, {"smiles": "CC[C@H](C)[C@@H]1NC(=O)[C@H](CC(C)C)N(C)C(=O)C[C@@H](C)NC(=O)[C@H](CC(C)C)N(C)C(=O)C(C)(C)NC(=O)[C@@H]2CCCN2C(=O)[C@H](CCc2ccc(C(F)(F)F)cc2)NC(=O)CN(C)C(=O)[C@H](Cc2ccc(Cl)cc2)N(C)C(=O)CN(C)C(=O)CN(C)C1=O", "note": "[Compound 1013] (cyclo([Aib][NMeL][d(β3hA)][NMeL]I[Sar][Sar][NMePhe(4-Cl)][Sar][hPhe(4-CF3)]P))", "IC50": 0.031}, {"smiles": "CC[C@H](C)[C@@H]1NC(=O)[C@H](CC(C)C)N(C)C(=O)C[C@@H](C(=O)N2CCCCC2)N(C)C(=O)[C@H](CC(C)C)NC(=O)C(C)(C)N(C)C(=O)[C@H](Cc2ccccc2)NC(=O)[C@H](Cc2cccc(I)c2)NC(=O)CN(C)C(=O)[C@H](Cc2ccc(C)cc2)N(C)C(=O)[C@@H]2CCN2C(=O)[C@H](C)N(C)C1=O", "note": "[Compound 1015] ([NMeL]I[NMeA][Aze][NMePhe(4-Me)][Sar][Phe(3-I)]F[NMeAib]L[NMeD]-Piperidide; lactam N-11)", "IC50": 0.018}, {"smiles": "CC[C@H](C)[C@@H]1NC(=O)[C@H](CC(C)C)N(C)C(=O)C[C@@H](C)NC(=O)[C@H](C(C)C)N(C)C(=O)C2(CCCC2)NC(=O)[C@@H]2CCCN2C(=O)[C@H](CCc2ccc(C(F)(F)F)c(Cl)c2)NC(=O)CN(C)C(=O)[C@H](CC2CCCCC2)N(C)C(=O)CN(C)C(=O)[C@@H]2CCN2C1=O", "note": "[Compound 1020] (cyclo([Ac5c][NMeV][d(β3hA)][NMeL]I[Aze][Sar][NMeCha][Sar][hPhe(3-Cl-4-CF3)]P))", "IC50": 0.051}, {"smiles": "CC[C@H](C)[C@@H]1NC(=O)[C@H](CC(C)C)N(C)C(=O)C[C@@H](C)NC(=O)[C@H](CC(C)C)N(C)C(=O)C2(CCCC2)NC(=O)[C@@H]2CCCN2C(=O)[C@H](CCc2ccc(S(F)(F)(F)(F)F)cc2)NC(=O)CN(C)C(=O)[C@H](CC2CCCCC2)N(C)C(=O)CN(C)C(=O)CN(C)C1=O", "note": "[Compound 1021] (cyclo([Ac5c][NMeL][d(β3hA)][NMeL]I[Sar][Sar][NMeCha][Sar][X48]P))", "IC50": 0.24}, {"smiles": "CCC[C@H]1C(=O)N(C)CC(=O)N[C@@H](CCc2ccc(C(F)(F)F)c(Cl)c2)C(=O)N2CCC[C@H]2C(=O)NC2(CCCC2)C(=O)N(C)[C@@H](C(C)C)C(=O)N(C)[C@H](C(=O)N2CCCCC2)CC(=O)N(C)[C@@H](CC(C)C)C(=O)N[C@@H]([C@@H](C)CC)C(=O)N(C)[C@@H](C)C(=O)N2CC[C@H]2C(=O)N1C", "note": "[Compound 1027] ([NMeL]I[NMeA][Aze][NMeNva][Sar][hPhe(3-Cl-4-CF3)]P[Ac5c][NMeV][NMeD]-Piperidide; lactam N-11)", "IC50": 0.0082}, {"smiles": "CC[C@H](C)[C@@H]1NC(=O)[C@H](C)N(C)C(=O)C[C@@H](C)NC(=O)[C@H](CC(C)C)N(C)C(=O)[C@H](Cc2ccccc2)N(C)C(=O)[C@@H]2CCCN2C(=O)[C@H](CCc2ccc(C(F)(F)F)cc2)NC(=O)CN(C)C(=O)[C@H](CC2CCCCC2)N(C)C(=O)CN(C)C(=O)CN(C)C1=O", "note": "[Compound 1031] (cyclo(I[Sar][Sar][NMeCha][Sar][hPhe(4-CF3)]P[NMeF][NMeL][d(β3hA)][NMeA]))", "IC50": 0.32}, {"smiles": "CC[C@H](C)[C@@H]1NC(=O)[C@H](CC(C)C)N(C)C(=O)C[C@@H](CC(C)C)NC(=O)[C@H](C(C)C)N(C)C(=O)C2(CCCC2)NC(=O)[C@@H]2CCCN2C(=O)[C@H](CCc2ccc(C(F)(F)F)c(Cl)c2)NC(=O)CN(C)C(=O)[C@H](CC2CCCCC2)N(C)C(=O)CN(C)C(=O)CN(C)C1=O", "note": "[Compound 1032] (cyclo([Ac5c][NMeV][d(β3hL)][NMeL]I[Sar][Sar][NMeCha][Sar][hPhe(3-Cl-4-CF3)]P))", "IC50": 0.06}, {"smiles": "CCCCN1CC(=O)N(C)[C@@H](CC2CCCCC2)C(=O)N(C)CC(=O)N[C@@H](CCc2ccc(C(F)(F)F)c(Cl)c2)C(=O)N2CCC[C@H]2C(=O)NC2(CCCC2)C(=O)N(C)[C@@H](C(C)C)C(=O)N[C@H](C)CC(=O)N(C)[C@@H](CC(C)C)C(=O)N[C@@H]([C@@H](C)CC)C(=O)N(C)CC1=O", "note": "[Compound 1033] (cyclo([Ac5c][NMeV][d(β3hA)][NMeL]I[Sar][NBuGly][NMeCha][Sar][hPhe(3-Cl-4-CF3)]P))", "IC50": 0.36}, {"smiles": "CC[C@H](C)[C@@H]1NC(=O)[C@H](CC(C)C)N(C)C(=O)C[C@@H](C(=O)N2C3CCC2COC3)N(C)C(=O)[C@H](C2CCCC2)N(C)C(=O)C2(CCCC2)NC(=O)[C@H](CC(=O)N2CCC(F)(F)CC2)N(C)C(=O)[C@H](CCc2ccc(C(F)(F)F)c(Cl)c2)NC(=O)CN(C)C(=O)[C@H](CC2CCCCC2)N(C)C(=O)[C@@H]2CCN2C(=O)[C@H](C)N(C)C1=O", "note": "[Compound 1039] ([NMeL]I[NMeA][Aze][NMeCha][Sar][hPhe(3-Cl-4-CF3)][NMeD](N(CH2CH2)2CF2)[Ac5c][NMeGly(cPent)][NMeD]-{3Oxa8azabicyclo(3.2.1)octane}; lactam N-11)", "IC50": 0.045}, {"smiles": "CC[C@H](C)[C@@H]1NC(=O)[C@H](CC(C)C)N(C)C(=O)C[C@@H](C(=O)N2CCCCC2)N(C)C(=O)[C@H]([C@@H](C)O)N(C)C(=O)C2(CCCC2)NC(=O)[C@@H]2CCCN2C(=O)[C@H](CCc2ccc(C(F)(F)F)c(Cl)c2)NC(=O)CN(C)C(=O)[C@H](CC2CCCCC2)N(C)C(=O)CN(C)C(=O)CN(C)C1=O", "note": "[Compound 1041] ([NMeL]I[Sar][Sar][NMeCha][Sar][hPhe(3-Cl-4-CF3)]P[Ac5c][NMeT][NMeD]-Piperidide; lactam N-11)", "IC50": 0.0016}, {"smiles": "CCCC[C@@H]1NC(=O)[C@H](Cc2ccccc2)NC(=O)CN(C)C(=O)[C@H](Cc2ccc(Cl)cc2)N(C)C(=O)CN(C)C(=O)CN(C)C(=O)[C@H]([C@@H](C)CC)NC(=O)[C@H](CC(C)C)N(C)C(=O)C[C@@H](C(=O)N2CCCCC2)N(C)C(=O)[C@H](CC(C)C)NC(=O)C(C)(C)N(C)C1=O", "note": "[Compound 1043] ([NMeL]I[Sar][Sar][NMePhe(4-Cl)][Sar]F[Nle][NMeAib]L[NMeD]-Piperidide; lactam N-11)", "IC50": 0.06}, {"smiles": "CCCC[C@@H]1NC(=O)[C@H](Cc2cccc(I)c2)NC(=O)CN(C)C(=O)[C@H](Cc2ccc(Cl)cc2)N(C)C(=O)CN(C)C(=O)CN(C)C(=O)[C@H]([C@@H](C)CC)NC(=O)[C@H](CC(C)C)N(C)C(=O)C[C@@H](C(=O)N2CCCCC2)N(C)C(=O)[C@H](CC(C)C)NC(=O)[C@H](Cc2cccc(Cl)c2)N(C)C1=O", "note": "[Compound 1044] ([NMeL]I[Sar][Sar][NMePhe(4-Cl)][Sar][Phe(3-I)][Nle][NMePhe(3-Cl)]L[NMeD]-Piperidide; lactam N-11)", "IC50": 0.055}]}]}
